Laboratory results: patent US20250368652A1, “MICROBIOCIDAL BICYCLIC HETEROCYCLIC CARBOXAMIDE DERIVATIVES” (SYNGENTA CROP PROTECTION AG, priority 2022, published 2025)

Tests used:
[1] = tested on: Botryotinia fuckeliana (Botrytis cinerea); assay: Botryotinia fuckeliana (Botrytis cinerea) / liquid culture (gray mould); format: cell-based; conditions: liquid culture (Vogels broth), growth inhibition photometrically 3-4 days after application, compared to untreated control
Experimental: (§1) Mycelia fragments or conidia suspensions of a fungus prepared either freshly from liquid cultures of the fungus or from cryogenic storage, are directly mixed into nutrient broth. DMSO solutions of the test compound (max. 10 mg/mL) are diluted with 0.025% Tween20 by a factor of 50 and 10 μL of this solution is pipetted into a microtiter plate (96-well format). The nutrient broth containing the fungal spores/mycelia fragments is then added to give an end concentration of the tested compound. The test plates are incubated in the dark at 24° C. and 96% relative humidity. The inhibition of fungal growth is determined photometrically after 2 to 7 days, depending on the pathosystem, and percent antifungal activity relative to the untreated check is calculated. Conidia of the fungus from cryogenic storage are directly mixed into nutrient broth (Vogels broth). After placing a (DMSO) solution of test compound into a microtiter plate (96-well format), the nutrient broth containing the fungal spores is added. The test plates are incubated at 24° C. and the inhibition of growth is determined photometrically 3-4 days after application.

Phytophthora infestans = format: in vivo; conditions: 200 ppm; tomato leaf disks, preventative, inoculated 1 day after application; compared to untreated control
[2] = tested on: Magnaporthe grisea (Pyricularia oryzae); format: in vivo; conditions: 200 ppm; rice leaf segments cv. Ballila, preventative, inoculated 2 days after application; compared to untreated control
[3] = tested on: Blumeria graminis f. sp. tritici (Erysiphe graminis f. sp. tritici); assay: Blumeria graminis f. sp. tritici / wheat / leaf disc preventative (powdery mildew on wheat); format: in vivo; conditions: 200 ppm, wheat leaf segments cv. Kanzler, inoculated 1 day after application, compared to untreated control
Experimental: Leaf disks or leaf segments of various plant species are cut from plants grown in a greenhouse. The cut leaf disks or segments are placed in multiwell plates (24-well format) onto water agar. The leaf disks are sprayed with a test solution before (preventative) or after (curative) inoculation. Compounds to be tested are prepared as DMSO solutions (max. 10 mg/mL) which are diluted to the appropriate concentration with 0.025% Tween20 just before spraying. The inoculated leaf disks or segments are incubated under defined conditions (temperature, relative humidity, light, etc.) according to the respective test system. A single evaluation of disease level is carried out 3 to 14 days after inoculation, depending on the pathosystem. Percent disease control relative to the untreated check leaf disks or segments is then calculated. Wheat leaf segments cv. Kanzler are placed on agar in a multiwell plate (24-well format) and sprayed with the formulated test compound diluted in water. […] The inoculated leaf disks are incubated at 20° C. and 60% rh under a light regime of 24 h darkness followed by 12 h light/12 h darkness in a climate chamber and the activity of a compound is assessed as percent disease control compared to untreated when an appropriate level of disease damage appears on untreated check leaf segments (6-8 days after application).

[4] = tested on: Glomerella lagenarium (Colletotrichum lagenarium); assay: Glomerella lagenarium (Colletotrichum lagenarium) / liquid culture (anthracnose); format: cell-based; conditions: Colletotrichum orbiculare, liquid culture (PDB), growth inhibition photometrically 3-4 days after application, compared to untreated control
Experimental: as §1, with “nutrient broth (PDB potato dextrose broth). After” for “nutrient broth (Vogels broth). After”, “growth is measured photometrically 3-4” for “growth is determined photometrically 3-4”

[5] = tested on: Phaeosphaeria nodorum (Septoria nodorum); assay: Phaeosphaeria nodorum (Septoria nodorum) / wheat / leaf disc preventative (glume blotch); format: in vivo; conditions: 200 ppm, wheat leaf segments cv. Kanzler, inoculated 2 days after application, compared to untreated control
Experimental: Leaf disks or leaf segments of various plant species are cut from plants grown in a greenhouse. The cut leaf disks or segments are placed in multiwell plates (24-well format) onto water agar. The leaf disks are sprayed with a test solution before (preventative) or after (curative) inoculation. Compounds to be tested are prepared as DMSO solutions (max. 10 mg/mL) which are diluted to the appropriate concentration with 0.025% Tween20 just before spraying. The inoculated leaf disks or segments are incubated under defined conditions (temperature, relative humidity, light, etc.) according to the respective test system. A single evaluation of disease level is carried out 3 to 14 days after inoculation, depending on the pathosystem. Percent disease control relative to the untreated check leaf disks or segments is then calculated. Wheat leaf segments cv. Kanzler are placed on agar in a multiwell plate (24-well format) and sprayed with the formulated test compound diluted in water. […] The inoculated test leaf disks are incubated at 20° C. and 75% rh under a light regime of 12 h light/12 h darkness in a climate cabinet and the activity of a compound is assessed as percent disease control compared to untreated when an appropriate level of disease damage appears in untreated check leaf disks (5-7 days after application).

[6] = tested on: Puccinia recondita f. sp. tritici; assay: Puccinia recondita f. sp. tritici / wheat / leaf disc curative (brown rust); format: in vivo; conditions: 200 ppm, wheat leaf segments cv. Kanzler, applied 1 day after inoculation, compared to untreated control

Compound | inhibition of growth at 20 ppm [1] [%] | inhibition of growth at 20 ppm [4] [%] | further results
O=C(NCC(F)c1ccc(Cl)cc1Cl)c1c(Oc2cccc(C3CC3)c2)cnc2c(Cl)cnn12 (racemic) [Compound P-1.9, 3-chloro-6-(3-cyclopropylphenoxy)-N-[2-(2,4-dichlorophenyl)-2-fluoro-ethyl]pyrazolo[1,5-a]pyrimidine-7-carboxamide] | ≥ 80 |  | control of Phytophthora infestans (Phytophthora infestans): at least 80%; control of Magnaporthe grisea [2]: at least 80%
O=C(NC[C@H](F)c1ccc(Cl)cc1Cl)c1c(Oc2cccc(C3CC3)c2)cnc2c(Cl)cnn12 (single isomer, unassigned) [Compound P-1.16] | ≥ 80 | ≥ 80 | control of Blumeria graminis f. sp. tritici [3]: at least 80%; control of Phaeosphaeria nodorum [5]: at least 80%
O=C(NCC(F)c1ccc(Cl)cc1Cl)c1c(Oc2cccc(C3CC3)c2)cnc2nccn12 (stereo not shown) [Compound P-1.1, 6-(3-cyclopropylphenoxy)-N-[2-(2,4-dichlorophenyl)-2-fluoro-ethyl]imidazo[1,2-a]pyrimidine-5-carboxamide] | ≥ 80 | ≥ 80 | 
O=C(NCC(F)c1ccc(Cl)cc1Cl)c1c(Oc2cccc(C3CC3)c2)cnc2ncnn12 (stereo not shown) [Compound P-1.2, 6-(3-cyclopropylphenoxy)-N-[2-(2,4-dichlorophenyl)-2-fluoro-ethyl]-[1,2,4]triazolo[1,5-a]pyrimidine-7-carboxamide] | ≥ 80 | ≥ 80 | 
O=C(NCC(F)c1ccc(Cl)cc1Cl)c1c(Oc2cccc(C3CC3)c2)cnc2ccnn12 (stereo not shown) [Compound P-1.3, 6-(3-cyclopropylphenoxy)-N-[2-(2,4-dichlorophenyl)-2-fluoro-ethyl]pyrazolo[1,5-a]pyrimidine-7-carboxamide] | ≥ 80 | ≥ 80 | 
O=C(NCCc1ccc(Cl)cc1Cl)c1c(Oc2cccc(C3CC3)c2)cnc2ncnn12 [Compound P-1.5, 6-(3-cyclopropylphenoxy)-N-[2-(2,4-dichlorophenyl)ethyl]-[1,2,4]triazolo[1,5-a]pyrimidine-7-carboxamide] | ≥ 80 |  | 
O=C(NCCc1ccc(Cl)cc1Cl)c1c(Oc2cccc(C3CC3)c2)cnc2nccn12 [Compound P-1.6, 6-(3-cyclopropylphenoxy)-N-[2-(2,4-dichlorophenyl)ethyl]imidazo[1,2-a]pyrimidine-5-carboxamide] |  | ≥ 80 | 
Cc1cn2c(C(=O)NCC(F)c3ccc(Cl)cc3Cl)c(Oc3cccc(C4CC4)c3)cnc2n1 (stereo not shown) [Compound P-1.7, 6-(3-cyclopropylphenoxy)-N-[2-(2,4-dichlorophenyl)-2-fluoro-ethyl]-2-methyl-imidazo[1,2-a]pyrimidine-5-carboxamide] | ≥ 80 | ≥ 80 | 
N#Cc1cc2ncc(Oc3cccc(C4CC4)c3)c(C(=O)NCC(F)c3ccc(Cl)cc3Cl)n2n1 (stereo not shown) [Compound P-1.8, 2-cyano-6-(3-cyclopropylphenoxy)-N-[2-(2,4-dichlorophenyl)-2-fluoro-ethyl]pyrazolo[1,5-a]pyrimidine-7-carboxamide] | ≥ 80 | ≥ 80 | control of Puccinia recondita f. sp. tritici [6]: at least 80%
O=C(NCC(F)c1ccc(Cl)cc1Cl)c1c(Oc2cccc(C3CC3)c2)cnc2cc(F)nn12 (stereo not shown) [Compound P-1.10, 6-(3-cyclopropylphenoxy)-N-[2-(2,4-dichlorophenyl)-2-fluoro-ethyl]-2-fluoro-pyrazolo[1,5-a]pyrimidine-7-carboxamide] | ≥ 80 | ≥ 80 | 
Cc1cnn2c(C(=O)NCC(F)c3ccc(Cl)cc3Cl)c(Oc3cccc(C4CC4)c3)cnc12 (stereo not shown) [Compound P-1.11, 6-(3-cyclopropylphenoxy)-N-[2-(2,4-dichlorophenyl)-2-fluoro-ethyl]-3-methyl-pyrazolo[1,5-a]pyrimidine-7-carboxamide] | ≥ 80 | ≥ 80 | 
O=C(NCC(F)c1ccc(Cl)cc1Cl)c1c(Oc2cccc(C3CC3)c2)cnc2cc(Cl)nn12 (stereo not shown) [Compound P-1.12, 2-chloro-6-(3-cyclopropylphenoxy)-N-[2-(2,4-dichlorophenyl)-2-fluoro-ethyl]pyrazolo[1,5-a]pyrimidine-7-carboxamide] | ≥ 80 | ≥ 80 | 
Cc1nc2ncc(Oc3cccc(C4CC4)c3)c(C(=O)NCC(F)c3ccc(Cl)cc3Cl)n2n1 (stereo not shown) [Compound P-1.14, 6-(3-cyclopropylphenoxy)-N-[2-(2,4-dichlorophenyl)-2-fluoro-ethyl]-2-methyl-[1,2,4]triazolo[1,5-a]pyrimidine-7-carboxamide] | ≥ 80 | ≥ 80 | 
O=C(NCC(F)c1ccc(Cl)cc1Cl)c1c(Oc2cccc(C3CC3)c2)cnn2nccc12 (stereo not shown) [Compound P-1.15, 5-(3-cyclopropylphenoxy)-N-[2-(2,4-dichlorophenyl)-2-fluoro-ethyl]pyrazolo[1,5-b]pyridazine-4-carboxamide] | ≥ 80 | ≥ 80 | 
COc1nn2c(C(=O)NCC(F)c3ccc(Cl)cc3Cl)c(Oc3cccc(C4CC4)c3)cnc2c1C#N (stereo not shown) [Compound P-1.18, 3-cyano-6-(3-cyclopropylphenoxy)-N-[2-(2,4-dichlorophenyl)-2-fluoro-ethyl]-2-methoxy-pyrazolo[1,5-a]pyrimidine-7-carboxamide] | ≥ 80 |  | 
Cc1nn2c(C(=O)NCC(F)c3ccc(Cl)cc3Cl)c(Oc3cccc(C4CC4)c3)cnc2c1Cl (stereo not shown) [Compound P-1.19, 3-chloro-6-(3-cyclopropylphenoxy)-N-[2-(2,4-dichlorophenyl)-2-fluoro-ethyl]-2-methyl-pyrazolo[1,5-a]pyrimidine-7-carboxamide] | ≥ 80 |  | 
Cc1nn2c(C(=O)NCC(F)c3ccc(Cl)cc3Cl)c(Oc3cccc(C4CC4)c3)cnc2c1C#N (stereo not shown) [Compound P-1.20, 3-cyano-6-(3-cyclopropylphenoxy)-N-[2-(2,4-dichlorophenyl)-2-fluoro-ethyl]-2-methyl-pyrazolo[1,5-a]pyrimidine-7-carboxamide] | ≥ 80 | ≥ 80 | 
